Assay [1] has as its target T1, HoxFU (diaphorase moiety of the NAD+-reducing soluble [NiFe]-hydrogenase, SH) (Cupriavidus necator, UniProt P22317).
T1 construct: gene hoxF; HoxFU heterodimer without HoxHY and HoxI; N-terminal Strep-tag II on HoxF kept; plasmid pGE553, homologous overproduction in R. eutropha HF424; Strep-Tactin plus size exclusion; apparent 110 kDa; HoxF 67 kDa, HoxU 27 and 23 kDa (both with original termini, unidentified modification); FMN and Fe-S clusters; with NAD-reducing hydrogenase HoxS subunit gamma
The assay is described as follows: protein film electrochemistry, inhibition of NAD+ reduction current. The class given is biochemical. The settings on record: -412 mV, 0.14 mM NAD+, 50 mM Tris-HCl pH 8.0; enzyme adsorbed on graphite electrode.

Assay [2] concerns the target T1, HoxFU (diaphorase moiety of the NAD+-reducing soluble [NiFe]-hydrogenase, SH). The assay can be described thus: protein film electrochemistry, Dixon plot. The format is biochemical.

From PMC3189943, “Catalytic Properties of the Isolated Diaphorase Fragment of the NAD^+-Reducing [NiFe]-Hydrogenase from Ralstonia eutropha” (PLoS ONE, 2011) come the findings set out here.

Like-named read-outs stand apart in the source and are kept apart here.

T1 sequence (P22317 whole entry): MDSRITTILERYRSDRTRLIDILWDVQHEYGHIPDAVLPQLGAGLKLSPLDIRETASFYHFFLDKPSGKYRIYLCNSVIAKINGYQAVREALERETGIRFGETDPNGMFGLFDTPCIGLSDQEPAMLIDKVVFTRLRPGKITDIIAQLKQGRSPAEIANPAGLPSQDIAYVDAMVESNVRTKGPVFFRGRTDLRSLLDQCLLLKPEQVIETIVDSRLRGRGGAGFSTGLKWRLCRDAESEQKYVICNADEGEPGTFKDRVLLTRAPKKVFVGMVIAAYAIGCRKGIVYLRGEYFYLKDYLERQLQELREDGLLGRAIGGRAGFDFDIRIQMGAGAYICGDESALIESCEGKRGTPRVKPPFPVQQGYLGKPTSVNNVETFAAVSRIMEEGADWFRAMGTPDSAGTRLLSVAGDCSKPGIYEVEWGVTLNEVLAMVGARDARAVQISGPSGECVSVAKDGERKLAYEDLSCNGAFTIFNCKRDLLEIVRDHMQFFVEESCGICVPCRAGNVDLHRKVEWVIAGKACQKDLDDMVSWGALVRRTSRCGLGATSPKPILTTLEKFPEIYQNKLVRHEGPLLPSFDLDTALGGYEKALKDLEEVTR
T1 sequence (P22318 2-234 partner): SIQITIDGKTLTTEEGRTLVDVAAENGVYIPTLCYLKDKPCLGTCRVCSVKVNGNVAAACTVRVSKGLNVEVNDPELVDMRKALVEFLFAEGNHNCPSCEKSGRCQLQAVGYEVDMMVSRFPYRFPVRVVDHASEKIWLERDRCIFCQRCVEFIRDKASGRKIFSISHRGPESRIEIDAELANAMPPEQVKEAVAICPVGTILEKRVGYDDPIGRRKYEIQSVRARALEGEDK

With `Nc1ncnc2c1ncn2[C@@H]1O[C@H](COP(=O)(O)OP(=O)(O)OC[C@H]2OC(O)[C@H](O)[C@@H]2O)[C@@H](O)[C@H]1O` (stereo partly drawn) [ADP-ribose], the “protein film electrochemistry, inhibition of NAD+ reduction current” value in assay [1] was “effect of injections of ADP-ribose on NAD^+ reduction by HoxFU, confirming that ADP-ribose is an inhibitor”.

For the molecule `NC(=O)c1ccc[n+]([C@@H]2O[C@H](COP(=O)(O)OP(=O)(O)OC[C@H]3O[C@@H](n4cnc5c(N)ncnc54)[C@H](O)[C@@H]3O)[C@@H](O)[C@H]2O)c1` [NAD^+], the Ki in assay [2] (read-out: K I(NAD+)) fell in the range of 100 to 300 µM.

On to `NC(=O)C1=CN([C@@H]2O[C@H](COP(=O)(O)OP(=O)(O)OC[C@H]3O[C@@H](n4cnc5c(N)ncnc54)[C@H](O)[C@@H]3O)[C@@H](O)[C@H]2O)C=CC1` [NADH], for which the Ki in assay [2] (read-out: K I(NADH)) was 200 to 300 µM.
